In the test the test system is CAR-induced swelling, rat knee joint. The settings on record: intra-articular, 30 minutes before CAR, TAC 10 μg/joint.

Description: In order to induce an inflammation reaction, a carrageenan solution (CAR, 1%, 50 μl) was injected intra-articularly on one side into a rat knee joint. The uninjected side was used for control purposes. Six animals per group were used.
The specific cathepsin D inhibitors according to the invention were administered out intra-articularly 30 minutes before the CAR.

Consider `C[C@]12C=CC(=O)C=C1CC[C@H]1[C@@H]3C[C@@H](O)[C@](O)(C(=O)CO)[C@@]3(C)C[C@H](O)[C@@]12F` [TAC, Triamcinolone], for which the “reduction of CAR-induced swelling” value is recorded as “capable of reducing the CAR-induced swelling”.

For the origin of these results see patent US9884814B2, “Acylguanidines for treating osteoarthritis” (Merck Patent GmbH, priority 2013, dated 2018).
